target: T1, (H+/K+)-ATPase (Canis lupus familiaris, UniProt P50996); assay: Inhibition of (H+/K+)-ATPase from canine gastric mucosa (inorganic phosphate release); type: biochemical; conditions: canine gastric mucosa microsomes, pH 6.0, 30 min preincubation at 37° C.; read-out: (H+/K+)-ATPase IC50
T1 construct: The microsomes retained at the 15%-30% sucrose interface, after centrifugation at 250,000×g for sixty minutes, were used as the source of (H^+/K^+)-ATPase; from tissue; host or cells: gastric glandular mucosa of mongrel dogs (microsomal fraction, lyophilized)
T1 sequence (P50996 whole entry): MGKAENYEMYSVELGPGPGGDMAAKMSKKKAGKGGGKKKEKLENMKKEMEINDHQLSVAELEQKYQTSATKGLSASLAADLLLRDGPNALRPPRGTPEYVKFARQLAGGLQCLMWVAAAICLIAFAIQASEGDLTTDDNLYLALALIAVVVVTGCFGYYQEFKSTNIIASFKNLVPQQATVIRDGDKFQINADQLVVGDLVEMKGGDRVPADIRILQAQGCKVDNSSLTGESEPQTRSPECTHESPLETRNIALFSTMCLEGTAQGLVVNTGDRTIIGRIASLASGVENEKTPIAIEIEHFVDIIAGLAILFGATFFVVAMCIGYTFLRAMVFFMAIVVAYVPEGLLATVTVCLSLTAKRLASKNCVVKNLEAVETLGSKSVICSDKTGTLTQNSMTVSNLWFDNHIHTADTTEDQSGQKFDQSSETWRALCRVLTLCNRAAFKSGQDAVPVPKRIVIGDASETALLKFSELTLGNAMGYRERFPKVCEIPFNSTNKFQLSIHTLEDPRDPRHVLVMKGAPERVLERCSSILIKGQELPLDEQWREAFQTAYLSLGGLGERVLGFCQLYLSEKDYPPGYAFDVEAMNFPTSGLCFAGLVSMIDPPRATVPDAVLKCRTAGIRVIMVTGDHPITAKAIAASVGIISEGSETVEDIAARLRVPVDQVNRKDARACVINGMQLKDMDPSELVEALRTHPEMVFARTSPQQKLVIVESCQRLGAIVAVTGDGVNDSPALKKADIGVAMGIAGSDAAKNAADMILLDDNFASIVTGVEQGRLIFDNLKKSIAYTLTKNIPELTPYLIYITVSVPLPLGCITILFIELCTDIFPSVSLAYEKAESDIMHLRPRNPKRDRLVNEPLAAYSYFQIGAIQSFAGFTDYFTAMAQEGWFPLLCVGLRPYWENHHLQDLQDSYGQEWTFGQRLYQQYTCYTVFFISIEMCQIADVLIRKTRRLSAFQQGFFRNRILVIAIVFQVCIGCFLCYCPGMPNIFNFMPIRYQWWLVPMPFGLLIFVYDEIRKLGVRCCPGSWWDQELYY
T1 sequence (P33704 whole entry partner): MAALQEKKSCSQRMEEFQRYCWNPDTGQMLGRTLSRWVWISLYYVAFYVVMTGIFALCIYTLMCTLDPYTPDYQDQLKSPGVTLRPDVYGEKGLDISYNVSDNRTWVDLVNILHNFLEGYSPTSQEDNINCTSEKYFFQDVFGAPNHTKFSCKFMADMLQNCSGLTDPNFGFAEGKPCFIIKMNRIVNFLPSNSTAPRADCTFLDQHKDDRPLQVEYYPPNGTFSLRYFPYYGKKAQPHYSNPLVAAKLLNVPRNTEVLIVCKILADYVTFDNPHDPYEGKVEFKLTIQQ
Description: Mongrel dogs weighing 15 to 25 kilograms were fasted for twenty-four hours, with water provided ad libitum. The animals were anesthetized with pentobarbital and the stomachs were removed. Subsequent tissue manipulations and subcellular fractionations were performed at 0° C. to 4° C. After the stomachs were cut open and rinsed with tap water, the antral and cardiac regions were removed and the remaining tissue was rinsed three times in saline. The glandular mucosa was removed mechanically, chopped finely in a medium containing 10 mM Tris hydrochloride (pH 7.4) and 250 mM sucrose, and homogenized. The homogenate was centrifuged at 20,000×g for twenty minutes and the pellet discarded. The supernatant was then centrifuged at 150,000×g for ninety minutes and the supernatant discarded. The pellet was resuspended in the Tris-HCl/sucrose medium by homogenization. Part (2 ml) of the resultant microsomal suspension was layered onto a step gradient consisting of 9 ml of 15% sucrose above 12 ml of 30% sucrose, each sucrose solution being buffered with 10 mM Tris hydrochloride (pH 7.4) containing 0.01% sodium azide. The microsomes retained at the 15%-30% sucrose interface, after centrifugation at 250,000×g for sixty minutes, were used as the source of (H^+/K^+)-ATPase. Microsomal preparations were lyophilized, a process that assured potassium ion permiability, and stored at −10° C. until used.
(H^+/K^+)-ATPase activity for each test compound was determined, in duplicate, by measuring the release of inorganic phosphate, which was assayed according to the method of J. ChandraRajan and L. Klein, Anal. Biochem., 72 , 407 (1976). The (H^+/K^+)-ATPase assay medium consisted of 20 mm mes-Tris (pH 6.0), 5 mM magnesium chloride, 25 mM sucrose, and 4 mM Tris-ATP with or without 20 mM potassium chloride in a total volume of 2 ml. Microsomal suspensions (20 to 60 mcl, containing about 25 mcg protein) were added to the assay medium, without Tris-ATP, and then preincubated with a test compound for thirty minutes at 37° C. The assay was initiated by adding Tris-ATP and the mixture was incubated another thirty minutes at 37° C. A 200-mcl aliquot of the assay mixture was then added to 1.4 ml of a solution consisting of 0.1 M sodium acetate (pH 4.0) and 10% sodium dodecylsulfate, followed by the addition of 200 mcl each of 1% ammonium molybdate and 1% ascorbic acid. At least fifteen minutes later, the optical absorbance at 870 nm (which was proportional to inorganic phosphate concentration up to 100 nmoles per tube, as determined by a standard curve) was obtained. Enzyme activity was linear with incubation time.
(H^+/K^+)-ATPase activity is represented by the difference between the measured activities in the presence of potassium-ion (K^+-stimulated) and in the absence of potassium ion (basal).

Compound | IC50
Cc1cc(C)c(N)c(C[S+]([O-])c2nc3ccccc3[nH]2)c1 (stereo not shown) [Example 30, 2-[(1H-Benzimidazol-2-ylsulfinyl)methyl]-4,6-dimethylbenzenamine hemihydrate] | 0.85 µM
Cc1ccc(C)c(C[S+]([O-])c2nc3ccccc3[nH]2)c1N (stereo not shown) [Example 55, 2-[(1H-Benzimidazol-2-ylsulfinyl)methyl]-3,6-dimethylbenzenamine monohydrate] | 0.82 µM
Cc1ccc2[nH]c([S+]([O-])Cc3ccc(C)c(C)c3N)nc2c1 (stereo not shown) [Example 63, 2-[[(5-Methyl-1H-benzimidazol-2-yl)sulfinyl]-methyl]-5,6-dimethylbenzenamine hemihydrate] | 0.71 µM
Cc1ccc(C)c(C[S+]([O-])c2nc3cc(C(F)(F)F)ccc3[nH]2)c1N (stereo not shown) [Example 65] | 1.5 µM
COc1cc2nc([S+]([O-])Cc3cc(C)ccc3N)[nH]c2cc1OC (stereo not shown) [Example 75] | 120 µM
Cc1cc(N)c(C[S+]([O-])c2nc3ccccc3[nH]2)c(C)c1C (stereo not shown) [Example 77, 2-[(1H-Benzimidazol-2-ylsulfinyl)methyl]-3,4,5-trimethylbenzenamine hemihydrate] | 16 µM
Cc1cccc2[nH]c([S+]([O-])Cc3cccc(N)n3)nc12 (stereo not shown) [Example 87, 6-[[(4-Methyl-1H-benzimidazol-2-yl)-sulfinyl]methyl]-2-pyridinamine] | 2.2 µM
Cc1ccc2[nH]c([S+]([O-])Cc3cccc(N)n3)nc2c1 (stereo not shown) [Example 89, 6-[[(5-Methyl-1H-benzimidazol-2-yl)-sulfinyl]methyl]-2-pyridinamine] | 1.68 µM
Nc1cccc(C[S+]([O-])c2nc3cc(Cl)ccc3[nH]2)n1 (stereo not shown) [Example 93, 6-[[(5-Chloro-1H-benzimidazol-2-yl)-sulfinyl]methyl]-2-pyridinamine] | 6.9 µM
Nc1cccc(C[S+]([O-])c2nc3cc(C(F)(F)F)ccc3[nH]2)n1 (stereo not shown) [Example 95, 6-[[[5-(Trifluoromethyl)-1H-benzimidazol-2-yl]sulfinyl]methyl]-2-pyridinamine] | 6.95 µM
COc1cc2nc([S+]([O-])Cc3cccc(N)n3)[nH]c2cc1OC (stereo not shown) [Example 99, 6-[[(5,6-Dimethoxy-1H-benzimidazol-2-yl)-sulfinyl]methyl]-2-pyridinamine ¼ hydrate] | 23.7 µM
Cc1cc2nc([S+]([O-])Cc3cccc(N)n3)[nH]c2cc1C (stereo not shown) [Example 101, 6-[[(5,6-Dimethyl-1H-benzimidazol-2-yl)-sulfinyl]methyl]-2-pyridinamine] | 0.72 µM
Cc1cc(C)c2nc([S+]([O-])Cc3cccc(N)n3)[nH]c2c1 (stereo not shown) [Example 103, 6-[[(4,6-Dimethyl-1H-benzimidazol-2-yl)-sulfinyl]methyl]-2-pyridinamine] | 1.8 µM
Nc1cccc(C[S+]([O-])c2nc3cc(CO)ccc3[nH]2)n1 (stereo not shown) [Example 105, 6-[[[5-(Hydroxymethyl)-1H-benzimidazol-2-yl]sulfinyl]methyl]-2-pyridinamine ¼ hydrate] | 9.5 µM
CC(C)(C)CNc1cccc(C[S+]([O-])c2nc3ccccc3[nH]2)n1 (stereo not shown) [Example 107, 6-[(1H-Benzimidazol-2-ylsulfinyl)methyl]-N-(2,2-dimethylpropyl)-2-pyridinamine ¼ hydrate] | 9.1 µM
Nc1ccc(C[S+]([O-])c2nc3ccccc3[nH]2)cn1 (stereo not shown) [Example 111, 5-[(1H-Benzimidazol-2-ylsulfinyl)methyl]-2-pyridinamine ¼ hydrate] | 34.8 µM

Results, then the molecule that gave them:

IC50 | Compound
5.3 µM | CCOc1ccc2[nH]c([S+]([O-])Cc3cc(C)ccc3N)nc2c1 (stereo not shown) [Example 61, 2-[[(5-Ethoxy-1H-benzimidazol-2-yl)sulfinyl]-methyl]-4-methylbenzenamine]
8.5 µM | COc1cccc(C[S+]([O-])c2nc3cc(C(F)(F)F)ccc3[nH]2)c1N (stereo not shown) [Example 67]
3.1 µM | CCOc1ccc2[nH]c([S+]([O-])Cc3cccc(N)n3)nc2c1 (stereo not shown) [Example 97, 6-[[(5-Ethoxy-1H-benzimidazol-2-yl)-sulfinyl]methyl]-2-pyridinamine]

tested on: not given; assay: not given; conditions: not given

Compound | melting point
Cc1cc2nc([S+]([O-])Cc3ccccc3N)[nH]c2cc1C (stereo not shown) (hydrate or solvate) [Example 10, 2-[[(5,6-Dimethyl-1H-benzimidazol-2-yl)sulfinyl]methyl]benzenamine ¼ hydrate] | 179 to 181 °C
Cc1cccc(N)c1C[S+]([O-])c1nc2ccccc2[nH]1 (stereo not shown) (hydrate or solvate) [Example 24, 2-[(1H-Benzimidazol-2-ylsulfinyl)methyl]-3-methylbenzenamine ¼ hydrate] | 152 to 153 °C
CNc1ccccc1C[S+]([O-])c1nc2ccccc2[nH]1.O (stereo not shown) (hydrate or solvate) [Example 32, 2-[(1H-Benzimidazol-2-ylsulfinyl)methyl]-N-methylbenzenamine monohydrate] | 117 to 120 °C
Cc1ccc(C[S+]([O-])c2nc3ccccc3[nH]2)c(N)c1C (stereo not shown) (hydrate or solvate) [Example 53, 2-[(1H-Benzimidazol-2-ylsulfinyl)methyl]-5,6-dimethylbenzenamine ¼ hydrate] | 160 °C (dec.)
Cc1ccc(C)c(C[S+]([O-])c2nc3ccccc3[nH]2)c1N.O (stereo not shown) (hydrate or solvate) [Example 55, 2-[(1H-Benzimidazol-2-ylsulfinyl)methyl]-3,6-dimethylbenzenamine monohydrate] | 144 to 145 °C

Further lines, results first:

melting point | Compound
206 to 208 °C | COc1ccc(N)c(CSc2nc3ccccc3[nH]2)c1.Cl.Cl
87 to 89 °C | CCOc1ccc2[nH]c(SCc3ccccc3N)nc2c1.O (hydrate or solvate)
167 to 170 °C | CN(C)c1ccccc1CSc1nc2ccccc2[nH]1 [Example 1, 2-[(1H-Benzimidazol-2-ylthio)methyl]-N,N-dimethylbenzenamine]
125 to 127 °C | Cc1cccc2[nH]c(SCc3ccccc3N)nc12 [Example 7, 2-[[(4-Methyl-1H-benzimidazol-2-yl)thio]methyl]benzenamine]
140 to 142 °C | COc1ccc2[nH]c(SCc3ccccc3N)nc2c1 [Example 11, 2-[[(5-methoxy-1H-benzimidazol-2-yl)thio]methyl]benzenamine]
114 to 118 °C | Nc1ccc(Cl)cc1CSc1nc2ccccc2[nH]1 [Example 15, 2-[(1H-Benzimidazol-2-ylthio)methyl]-4-chlorobenzenamine]
158 to 160.5 °C | Nc1cc(Cl)ccc1CSc1nc2ccccc2[nH]1 [Example 17, 2-[(1H-Benzimidazol-2-ylthio)methyl]-5-chlorobenzenamine]
130 to 134 °C | Cc1cccc(CSc2nc3ccccc3[nH]2)c1N [Example 27, 2-[(1H-Benzimidazol-2-ylthio)methyl]-6-methylbenzenamine]
139 to 141 °C | Cc1cc(C)c(N)c(CSc2nc3ccccc3[nH]2)c1 [Example 29, 2-[(1H-Benzimidazol-2-ylthio)methyl]-4,6-dimethylbenzenamine]
109 to 112 °C | CNc1ccccc1CSc1nc2ccccc2[nH]1 [Example 31, 2-[(1H-Benzimidazol-2-ylthio)methyl]-N-methylbenzenamine]
132 to 134 °C | COc1ccc2[nH]c(SCc3cccc(C)c3N)nc2c1 [Example 35, 2-[[(5-methoxy-1H-benzimidazol-2-yl)thio]methyl]-6-methylbenzenamine]
130 to 137 °C | Nc1ccc(C(F)(F)F)cc1CSc1nc2ccccc2[nH]1 [Example 48, 2-[(1H-Benzimidazol-2-ylthio)methyl]-4-(trifluoromethyl)benzenamine]
~ 100 °C | COc1cc(Cl)c(C)c(CSc2nc3ccccc3[nH]2)c1N [Example 58, 2-[(1H-Benzimidazol-2-ylthio)methyl]-4-chloro-6-methoxy-3-methylbenzenamine]
144 to 145 °C | CCOc1ccc2[nH]c([S+]([O-])Cc3cc(C)ccc3N)nc2c1 (stereo not shown) [Example 61, 2-[[(5-Ethoxy-1H-benzimidazol-2-yl)sulfinyl]-methyl]-4-methylbenzenamine]
174 to 176 °C | CCOC(=O)c1ccc(N)c(CSc2nc3ccccc3[nH]2)c1 [Example 70, Ethyl 4-amino-3-[(1H-benzimidazol-2-ylthio)methyl]benzoate]
140 to 146 °C | CCOC(=O)c1ccc(N)c(CSc2nc3cc(OC)ccc3[nH]2)c1 [Example 72, Ethyl 4-amino-3-[[(5-methoxy-1H-benzimidazol-2-yl)thio]methyl]benzoate]
